Test results taken from PMC12615753, “Glutathione as a taste modulator: molecular mechanisms of interaction with umami and sweet taste receptors” (Food Chemistry: Molecular Sciences, 2025).

Target: T1, hTAS1R1/rTAS1R3(Mut2) (UniProt Q7RTX1+Q923K1, L72W/P67S/S282A/Y281H)
T1 sequence (Q7RTX1 21-841): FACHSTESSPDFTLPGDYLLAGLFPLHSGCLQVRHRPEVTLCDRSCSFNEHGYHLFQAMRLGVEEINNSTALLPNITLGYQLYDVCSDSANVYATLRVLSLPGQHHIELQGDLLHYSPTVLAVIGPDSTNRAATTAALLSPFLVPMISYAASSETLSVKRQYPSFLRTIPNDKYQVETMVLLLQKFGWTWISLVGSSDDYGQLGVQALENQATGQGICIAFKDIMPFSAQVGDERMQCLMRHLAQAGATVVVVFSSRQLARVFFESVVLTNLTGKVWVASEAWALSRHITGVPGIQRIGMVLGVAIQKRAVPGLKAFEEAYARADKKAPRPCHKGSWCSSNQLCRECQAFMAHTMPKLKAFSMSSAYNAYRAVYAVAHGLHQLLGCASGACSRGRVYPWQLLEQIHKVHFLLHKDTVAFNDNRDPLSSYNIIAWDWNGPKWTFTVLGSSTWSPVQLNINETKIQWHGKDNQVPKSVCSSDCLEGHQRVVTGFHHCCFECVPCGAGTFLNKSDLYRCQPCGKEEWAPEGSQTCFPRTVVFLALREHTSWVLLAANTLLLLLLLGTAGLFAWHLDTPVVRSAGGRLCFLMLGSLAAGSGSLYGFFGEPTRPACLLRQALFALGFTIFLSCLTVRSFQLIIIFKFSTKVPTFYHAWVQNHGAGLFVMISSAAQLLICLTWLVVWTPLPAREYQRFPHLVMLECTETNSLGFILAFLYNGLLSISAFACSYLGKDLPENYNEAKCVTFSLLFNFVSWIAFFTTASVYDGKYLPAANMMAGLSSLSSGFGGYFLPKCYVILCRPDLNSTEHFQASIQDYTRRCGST
T1 sequence (Q923K1 21-858 P67S/L72W/Y281H/S282A): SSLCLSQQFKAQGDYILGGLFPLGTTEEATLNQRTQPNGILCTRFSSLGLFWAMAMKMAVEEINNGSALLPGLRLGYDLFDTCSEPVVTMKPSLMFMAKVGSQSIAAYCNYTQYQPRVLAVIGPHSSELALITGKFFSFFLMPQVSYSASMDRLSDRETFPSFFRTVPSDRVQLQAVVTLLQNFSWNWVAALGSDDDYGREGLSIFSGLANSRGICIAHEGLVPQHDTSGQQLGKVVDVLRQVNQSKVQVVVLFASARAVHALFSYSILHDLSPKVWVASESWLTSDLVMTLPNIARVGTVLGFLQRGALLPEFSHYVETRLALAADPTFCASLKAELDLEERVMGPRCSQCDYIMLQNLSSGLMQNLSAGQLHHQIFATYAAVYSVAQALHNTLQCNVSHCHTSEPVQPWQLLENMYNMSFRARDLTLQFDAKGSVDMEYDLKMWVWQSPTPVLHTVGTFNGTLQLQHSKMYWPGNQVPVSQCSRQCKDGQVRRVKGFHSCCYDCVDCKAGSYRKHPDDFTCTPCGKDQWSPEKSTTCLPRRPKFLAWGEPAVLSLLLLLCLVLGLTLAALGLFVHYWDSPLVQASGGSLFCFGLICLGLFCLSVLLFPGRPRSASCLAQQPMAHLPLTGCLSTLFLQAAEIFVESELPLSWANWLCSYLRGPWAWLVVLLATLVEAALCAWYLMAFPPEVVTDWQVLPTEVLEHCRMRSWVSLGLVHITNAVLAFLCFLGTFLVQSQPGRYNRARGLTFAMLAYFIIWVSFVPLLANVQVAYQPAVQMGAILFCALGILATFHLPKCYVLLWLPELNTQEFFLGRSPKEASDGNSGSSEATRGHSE
Assay: Calcium assay, mutated rTAS1R3 co-expressed with hTAS1R1
Conditions: for response to the agonist alone: Mut2
Procedure: HEK293T/17 cells (ATCC CRL-11268) were seeded into clear bottom black 96-well plates coated with poly-D-lysine at a density of 32500 cells/well in 100 μL of DMEM containing 4.5 g/L glucose and supplemented with penicillin/streptomycin, 2 mM GlutaMAX and 10 % dialyzed fetal bovine serum. The plates were incubated for 24 h at 37 °C and 7.3 % CO2 in a humidified atmosphere. After incubation, using Fugene® 4 K (0.46 μL/well, Promega, Illkirch, France), the cells were transiently transfected with pcDNA3-hTAS1R1-WT (60 ng/well) or TAS1R1 mutants, pcDNA4-rTAS1R3 (60 ng/well), pcDNA3-Gα15i2 (10 ng/well), and pGP-CMV-GCaMP6s (Addgene #40753; 10 ng/well) as a genetically encoded calcium indicator. Twenty-four hours after transfection, the HEK293T/17 cells were rinsed with 100 μL of C1 buffer (130 mM NaCl, 5 mM KCl, 10 mM HEPES, 2 mM CaCl2, and 5 mM sodium pyruvate, pH 7.4). For each molecule tested, a semi-logarithmic concentration range was created consisting of seven increasing concentrations and a negative control (zero dose) made of buffer C1. Binary mixtures with different molecules were also made to study potential synergy. In this case, the concentration range was tested in C1 buffer containing the other molecules to be tested. The concentration ranges varied depending on the molecule, its solubility, and its effectiveness in activating the receptor. All the solutions were made on the day of the test to prevent any oxidation of the compounds. If needed, the pH of each solution was adjusted by to pH 7.4 by adding NaOH. After 20 s of basal fluorescence calcium measurement, the cells were stimulated via automatic injection of a range of compounds in eight wells, and the signal emission was recorded for an additional 70 s, via a FlexStation 3® fluorometric microplate reader (Molecular Devices, San Jose, CA, USA). As a control, molecules were also tested on mock-transfected cells with the empty vector. The emitted fluorescence was measured at a wavelength of 510 nm after excitation at 488 nm. Each measurement was performed in duplicate on the same plate, and the experiments were carried out at least four times. Kinetic data were acquired via SoftMax Pro 5.4.6 software (Molecular Devices). For each well, the decrease in the raw fluorescence as the relative fluorescence changed was calculated as ΔF/F0. Replicates were averaged for the wells subjected to the same stimuli, the background signal was subtracted, and the fluorescence changes in mock-transfected cells were subtracted. The half-maximal effective concentration (EC50) and maximal signal amplitude (max ∆F/F0) were calculated via non-linear regression of the sigmoidal function four-parameter logistic equation [f(x) = min + (max − min)/(1 + (x/EC50)^nH)] via SigmaPlot 15.0 software (Grafiti LLC, Palo Alto, CA, USA). […] For a clearer understanding of the results, the amplitude values in certain dose-response curves were normalized to max ∆F/F0 = 1, to eliminate the differences in amplitude.
We also selected other residues surrounding the cavity that differed from species to species and were not directly involved in ligand binding but rather in dynamic phenomena resulting in signal transmission, namely, four residues located less deep in the binding cavity that we mutated to their human counterparts (Y281H, S282A, P67S, L72W) (Mut2) (Fig. S3).

| SMILES | EC50 | response to the agonist alone |
| --- | --- | --- |
| N[C@@H](CCC(=O)N[C@@H](CS)C(=O)NCC(=O)O)C(=O)O [GSH, γ-L-glutamyl-L-cysteinyl-glycine] | 1220 ± 488 µM | abolished |
| N[C@@H](CCC(=O)O)C(=O)O [L-Glu, L-glutamic acid, reference compound] | – | abolished |
| CCCC(CCC)NC(=O)c1ccc2c(c1)OCO2 [S807, N-(heptan-4-yl)benzo[d][1,3]dioxole-5-carboxamide, reference compound] | 1.59 ± 0.27 µM | severely impaired |
